In patent US7125958B1, “Malaria polypeptides” (priority 1997, dated 2006):

What was measured:
Type in all cases: cell-based, Plasmodium falciparum
TM 284 rosetting = test system: TM 284 rosetting
[1] = test system: FCR3S1.2 infected pRBC rosettes; conditions: competitive rosette-reformation, enzyme 60–90 min
[2] = test system: uninfected RBC rosette binding capacity; conditions: compared to non-treated RBC
TM180 rosettes = assay: Heparinase treatment, rosettes of strain TM180; conditions: not shown
R29 rosettes = assay: Heparinase treatment, rosettes of strain R29; conditions: not shown
FCR3S1 rosetting = conditions: compared to mock treated control cultures

## Heparinase III
TM 284 rosetting; compared to mock treated control cultures
  change in rosetting after treatment of whole cultures, TM 284: somewhat lower decrease
TM 284 rosetting; not shown
  effect of heparinase treatment on rosettes, TM284: disrupted the rosettes
[1]
  effect of enzyme treatment of the uninfected erythrocyte on rosette binding: treatment blocked the binding
[2]
  decrease of rosette binding capacity of treated uninfected RBC: 4–5 fold
TM180 rosettes
  effect of heparinase treatment on rosettes, TM180: disrupted the rosettes
R29 rosettes
  effect of heparinase treatment on rosettes, R29: not affected
FCR3S1 rosetting
  change in rosetting after treatment of whole cultures, FCR3S1: drastic reduction of the rosetting capacity
